Results: patent US8252835B2, “Compounds and methods for treating estrogen receptor-related diseases” (Shenogen Pharma Group Ltd., priority 2006, dated 2012)
Values belong to the compound of their own block, whether it stands above or below them.

What was measured:
MCF7 cells [1] = experiment: MCF7 surviving cell count (hemocytometer); details: for numbers of surviving MCF7 cells: 5 μM and up, two weeks, FIG. 5b
ER-α36 = target: T1, ER-α36 (Homo sapiens, UniProt P03372); experiment: Western blot of ER-α36 expression in MCF7 cells; details: zero to 25 μM, 12 hours, FIG. 9
T1 sequence (P03372 1-310 isoform P03372-4): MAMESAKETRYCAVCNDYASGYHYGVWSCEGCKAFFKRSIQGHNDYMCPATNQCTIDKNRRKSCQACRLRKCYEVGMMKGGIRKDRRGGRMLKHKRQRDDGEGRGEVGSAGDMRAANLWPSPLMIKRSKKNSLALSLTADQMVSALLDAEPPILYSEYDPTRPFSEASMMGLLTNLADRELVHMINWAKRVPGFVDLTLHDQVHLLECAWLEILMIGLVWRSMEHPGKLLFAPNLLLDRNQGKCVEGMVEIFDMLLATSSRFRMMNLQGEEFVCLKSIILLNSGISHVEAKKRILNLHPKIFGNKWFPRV

[2] = Asthma attack induced by ovalbumin in guinea pigs; type: in vivo; details: for blood concentration of histamine / concentration of IgE in the blood: ELISA; for blood concentration of histamine: FIG. 19; for concentration of IgE in the blood: FIG. 20; for percentage of oxyphil cells in the blood: control about 9.9%, normal about 5.3%
Procedure: Guinea pigs of 250-300 g were provided by Beijing Haidian Xingwang Animal Farm. The guinea pigs were injected with 1 ml 10% ovalbumin (Sigma Cat. No. A5253) into abdomen once. On the 15th-17th day after the injection, the guinea pigs were given 1% aerosolized ovalbumin for about 20 seconds through nasal spray to induce asthma attack. The latent period before asthma attack calculated from after ovalbumin administration to the time when the guinea pigs collapsed with convulsion was measured.
On the 17th day after injection, the qualified guinea pigs were divided into 3 groups, the high dosage IC-163 group (4 mg/kg/day), the low dosage IC-163 group (1 mg/kg/day) and the control group. Each group consisted of 10 guinea pigs. A normal group consisting of 8 normal guinea pigs which had not been injected with any 10% ovalbumin was also tested. IC-163 was administered to the guinea pigs at 4 mg per kilogram of body weight per day (the high dosage group) or 1 mg per kilogram of body weight per day (the low dosage group) through muscle injection once a day for 6 days while the guinea pigs of the normal group and the control group were injected with saline water. On the 4th and 6th day of administering the drug, the guinea pigs were induced for asthma attack in the same way as above. The latent period before asthma attack was measured. If the latent period lasted longer than 5 minutes, the latent period was recorded as 5 minutes. On the 6th day, blood was drawn from the guinea pigs of the four groups to examine the percentage of oxyphil cells, the concentrations of histamine and IgE in the blood. The percentage of oxyphil cells was measured by counting the number of oxyphil cells in every 200 leukocytes under microscope. The concentrations of histamine and IgE were measured by double-antibody sandwich ELISA (Enzyme Linked Immunosorbent Assay).

H226 Lung Cancer Cells = experiment: H226 lung cancer surviving cell count; type: cell-based; details: 10 μM, FIG. 16
ER-α46 = target: T2, ER-α46 (Homo sapiens, UniProt P03372); experiment: Western blot of ER-α46 expression in MCF7 cells; details: zero to 25 μM, 12 hours, FIG. 9
T2 sequence (P03372 1-422 isoform P03372-3): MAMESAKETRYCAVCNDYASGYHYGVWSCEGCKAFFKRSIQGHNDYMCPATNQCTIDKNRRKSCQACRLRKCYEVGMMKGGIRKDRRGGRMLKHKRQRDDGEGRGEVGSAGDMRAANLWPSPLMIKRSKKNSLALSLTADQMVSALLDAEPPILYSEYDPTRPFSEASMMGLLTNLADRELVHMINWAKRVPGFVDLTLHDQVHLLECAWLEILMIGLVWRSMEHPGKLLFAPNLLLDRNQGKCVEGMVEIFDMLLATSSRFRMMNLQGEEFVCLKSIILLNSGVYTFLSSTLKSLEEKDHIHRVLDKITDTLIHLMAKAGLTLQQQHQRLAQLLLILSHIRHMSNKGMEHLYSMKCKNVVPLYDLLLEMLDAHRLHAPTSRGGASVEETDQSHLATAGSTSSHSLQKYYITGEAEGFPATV

ER-α66 = target: T3, ER-α66 (Homo sapiens, UniProt P03372); experiment: Western blot of ER-α66 expression in MCF7 cells; details: zero to 25 μM, 12 hours, FIG. 9
T3 sequence (P03372 1-595): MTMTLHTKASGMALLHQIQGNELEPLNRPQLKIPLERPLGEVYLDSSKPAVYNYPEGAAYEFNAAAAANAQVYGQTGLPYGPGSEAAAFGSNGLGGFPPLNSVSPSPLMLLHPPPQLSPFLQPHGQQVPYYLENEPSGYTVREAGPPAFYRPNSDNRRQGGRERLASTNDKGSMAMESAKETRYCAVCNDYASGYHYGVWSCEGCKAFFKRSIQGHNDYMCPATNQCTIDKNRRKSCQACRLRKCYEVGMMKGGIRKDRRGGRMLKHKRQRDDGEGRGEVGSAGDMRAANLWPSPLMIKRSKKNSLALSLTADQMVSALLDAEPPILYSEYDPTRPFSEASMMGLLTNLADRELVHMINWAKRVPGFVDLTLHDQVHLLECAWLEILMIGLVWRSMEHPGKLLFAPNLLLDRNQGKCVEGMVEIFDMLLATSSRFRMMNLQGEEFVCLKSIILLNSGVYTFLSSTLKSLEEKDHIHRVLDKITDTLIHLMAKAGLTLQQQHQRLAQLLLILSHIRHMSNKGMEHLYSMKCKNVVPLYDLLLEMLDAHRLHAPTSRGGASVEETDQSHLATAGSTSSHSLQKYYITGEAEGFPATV

PC3 cells = experiment: PC3 prostate cancer surviving cell count; type: cell-based; details: 10 μM, FIG. 16
[3] = test system: Tamoxifen resistant MCF7 cells (MCF7/TAM); experiment: Surviving cell count, Tamoxifen resistant MCF7 cells; details: 10 μM, FIG. 16
MCF7 cells [4] = experiment: MCF7 colony formation; type: cell-based; details: 10 days, FIG. 5a
MDA-MB-231 cells = experiment: MDA-MB-231 colony formation, crystal violet staining; type: cell-based; details: 10 days, FIG. 4
cell proliferation = details: background, literature; cited from earlier work
[5] = test system: human endometrial cancer Hec1A cells; experiment: MTT assay of Hec1A cell growth; type: cell-based; details: 24 hours
Procedure: Human endometrial cancer Hec1A cells (ATCC No.: HTB-112™) were subseeded in a 96-well culture plate at a concentration of 5×10^3 cells/well and were cultured in DMEM containing high glucose medium (HyClone, SH30022.01B). […] The cells then were incubated with 0.5 mg/ml 3-(4,5-dimethylthiazol-2-yl)-2,5-diphenyltetrazolium bromide (MTT) for 4 hours at 37° C. wherein the MTT was reduced to insoluble purple formazan by the active mitochondrial reductase enzymes in the living cells. Then the excessive liquid MTT was removed from the reaction mixture. 150 μl of DMSO was added to dissolve the purple formazan into a colored solution. The optical density of the colored solution was measured at 490 nm using a microplate reader.

breast cancer cells = details: background, literature (Liu 2005; Wang 2004; Ye 2005); cited from earlier work
[6] = high dosage 4 mg/kg/day, 6th day
[7] = low dosage 1 mg/kg/day, 6th day
[8] = zero to 25 μM, as concentration rose

ER-α36 expression (ER-α36): greatly reduced
ER-α46 expression (ER-α46): greatly reduced
ER-α66 expression (ER-α66): greatly reduced
Structure (SMILES): COc1ccc(-c2oc3c(CCC(C)(C)O)c(O)cc(O)c3c(=O)c2O)cc1 [IC 163, 3,5,7-trihydroxy-8-(3-hydroxy-3-methylbutyl)-2-(4-methoxyphenyl)-4H-chromen-4-one]
numbers of surviving MCF7 cells (MCF7 cells [1]): significantly reduced
numbers of cells (MCF7 cells [1]; 10 μM, FIG. 16): reduced
latent period before asthma attack extended in comparison with the control group ([2]; high dosage 4 mg/kg/day muscle injection, 4th day): 72.9%
latent period before asthma attack extended in comparison with the control group ([2]; high dosage 4 mg/kg/day muscle injection, 6th day): 63.5%
blood concentration of histamine [2, 6]: significantly reduce
concentration of IgE in the blood [2, 6]: significantly reduce
percentage of oxyphil cells in the blood [2, 6]: about 8.6%
latent period before asthma attack extended in comparison with the control group ([2]; low dosage 1 mg/kg/day muscle injection, 4th day): 83.4%
latent period before asthma attack extended in comparison with the control group ([2]; low dosage 1 mg/kg/day muscle injection, 6th day): 72.7%
blood concentration of histamine [2, 7]: significantly reduce
concentration of IgE in the blood [2, 7]: significantly reduce
percentage of oxyphil cells in the blood [2, 7]: about 7.8%
numbers of cells (H226 Lung Cancer Cells): reduced
numbers of cells (PC3 cells): reduced
numbers of cells [3]: reduced

Structure (SMILES): C[C@]12CC[C@@H]3c4ccc(O)cc4C[C@@H](CCCCCCCCC[S+]([O-])CCCC(F)(F)C(F)(F)F)[C@H]3[C@@H]1CC[C@@H]2O (some centres unmarked) [ICI 182,780]
number of colonies of MCF7 cells (MCF7 cells [4]; 25 μM): only a limited decrease
numbers of colonies of MDA-MB-231 cells (MDA-MB-231 cells; 5 μM): decreased
numbers of colonies of MDA-MB-231 cells (MDA-MB-231 cells; 50 μM): remained at a high level

Structure (SMILES): COc1ccc(-c2oc3c(CC=C(C)C)c(O[C@@H]4O[C@H](CO)[C@@H](O)[C@H](O)[C@H]4O)cc(O)c3c(=O)c2O[C@@H]2O[C@@H](C)[C@H](O)[C@@H](O)[C@H]2O)cc1 [Icariin]
effect on cell proliferation in vitro (cell proliferation): no effect

Structure (SMILES): O=c1cc(-c2ccc(O)c(O)c2)oc2cc(O)cc(O)c12 [Luteolin]
number of colonies of MCF7 cells (MCF7 cells [4]; [8]): significantly reduced
numbers of colonies of MDA-MB-231 cells (MDA-MB-231 cells; 5 μM): decreased
numbers of colonies of MDA-MB-231 cells (MDA-MB-231 cells; 40 μM): dropped to near zero

Structure (SMILES): CC/C(=C(\c1ccccc1)c1ccc(OCCN(C)C)cc1)c1ccccc1 [Tamoxifen]
number of colonies of MCF7 cells (MCF7 cells [4]; [8]): significantly reduced
numbers of colonies of MDA-MB-231 cells (MDA-MB-231 cells; 5 μM): decreased
numbers of colonies of MDA-MB-231 cells (MDA-MB-231 cells; 10 μM): reduced to near zero
effect on the growth of Hec1A cells ([5]; concentrations below 3 μM): stimulating the growth
optical density at 490 nm (MTT) ([5]; concentrations increased from 0.001 μM to 3 μM, FIG. 21): rose

ER-α36 expression (ER-α36): greatly reduced
ER-α46 expression (ER-α46): greatly reduced
ER-α66 expression (ER-α66): greatly reduced
Structure (SMILES): CC1(C)CCc2c(cc(O)c3c(=O)c(O)c(-c4ccc(O)cc4)oc23)O1 [Y4, 3,5-dihydroxy-2-(4-hydroxyphenyl)-8,8-dimethyl-9,10-dihydro-4H,8H-pyrano[2,3-f]chromen-4-one]
numbers of surviving MCF7 cells (MCF7 cells [1]): significantly reduced

Structure (SMILES): CC(C)=CCc1c(O)cc(O)c2c(=O)c(O)c(-c3ccc(O)cc3)oc12 [desmethylicaritin, reference compound]
proliferation of breast cancer cells (breast cancer cells): significantly increase
